In one assay the test system is 11 DRB1-HLA molecules. The assay can be described thus: In vitro HLA class II binding, number of DRB1 alleles bound. Conditions: number of the 11 DRB1-HLA molecules tested bound with an affinity of 1,000 nM or better (in vitro). The arrangement: species or system human.
The subject of assay [1] is pre-cultured PBMCs (NSP12-specific T cells). The assay can be described thus: IFN-γ ELISpot with single 15-mer peptides after 11–13 days in vitro peptide-pool T-cell expansion. It counts as cell-based, human. The conditions noted are these: single NSP12 15-mer peptides.
In another assay the test system is CD4+ T cells. The assay can be described thus: Peptide-specific CD4+ T-cell response: IFN-γ ELISpot validated by intracellular cytokine staining after in vitro expansion. It counts as cell-based, human. The conditions noted are these: COVID-19 patients (acute or resolved, n = 27); peptide 10 µg/ml; share of individuals with a positive response.
A further assay concerns the target HLA DRB1*01:01 (Homo sapiens, UniProt P01903+P01911, A100R/D57E/F55L/F60I/F76Y/I96L/L162R/M171V/P40L/Q125E/R42F/V115G/Y59C). The experiment in a line: biochemical. The class given is binding. The conditions noted are these: binder threshold 1,000 nM, read-out: In vitro (IC50 nM) DRB1*01:01.
Another assay deals with HLA DRB1*03:01 (Homo sapiens, UniProt P01903+P01911, A100K/A102G/A103R/A169T/F55Y/I96L/K41T/L162R/M171V/P40S/Q125H/Q178H/Q39Y/R42S/S66N/T106N/T262R/W38E/Y61H). The experiment in a line: biochemical. The class given is binding. Conditions: binder threshold 1,000 nM, read-out: In vitro (IC50 nM) DRB1*03:01.
In another assay the target is HLA DRB1*04:01 (Homo sapiens, UniProt P01903+P01911, A100K/A169T/F76Y/I96L/K127E/L162R/M171V/N62H/P40V/Q125Y/R42H/S133A/S149N/S66Y/V115G/V209L/W38E). The experiment in a line: biochemical. Conditions: binder threshold 1,000 nM, read-out: In vitro (IC50 nM) DRB1*04:01. It counts as binding.
The target of a further assay is HLA DRB1*04:05 (Homo sapiens, UniProt P01903+P01911, A100R/A169T/D86S/F76Y/I96L/K127E/L162R/M171V/N62H/P40V/Q125Y/R42H/S133A/S149N/S66Y/V115G/V209L/W38E). The assay can be described thus: biochemical. It counts as binding. The conditions noted are these: binder threshold 1,000 nM, read-out: In vitro (IC50 nM) DRB1*04:05.
The target in another assay is HLA DRB1*07:01 (Homo sapiens, UniProt P01903+P01911, A100R/A102G/A103Q/D57E/D86V/E43K/F76Y/K127E/L162R/M171V/P40G/Q125H/Q99D/R33Q/R42Y/R54Q/S133A/S66F/T210M/V115G/Y107V/Y59L/Y89S). The assay can be described thus: biochemical. The class given is binding. The conditions noted are these: binder threshold 1,000 nM, read-out: In vitro (IC50 nM) DRB1*07:01.
The target of another assay is HLA DRB1*08:02 (Homo sapiens, UniProt P01903+P01911, A100R/A103L/A169T/F76Y/H45Y/I96F/K41T/L162R/M171V/P40S/Q125H/Q178H/Q39Y/Q99D/R218S/R42G/S66Y/V115G/W38E). The experiment in a line: biochemical. It counts as binding. Conditions: binder threshold 1,000 nM, read-out: In vitro (IC50 nM) DRB1*08:02.
A further assay concerns the target HLA DRB1*09:01 (Homo sapiens, UniProt P01903+P01911, A100R/A103E/D57H/D86V/F55Y/F60I/F76Y/I96F/K127E/L162R/M171V/P40D/Q125H/Q99R/R33Q/R42F/S133A/S66N/T210M/V115G/W38K/Y107V/Y59G/Y89S). The assay can be described thus: biochemical. It counts as binding. Conditions: binder threshold 1,000 nM, read-out: In vitro (IC50 nM) DRB1*09:01.
A further assay concerns the target HLA DRB1*11:01 (Homo sapiens, UniProt P01903+P01911, A100R/A169T/A87E/I96F/K41T/L162R/M171V/P40S/Q125H/Q178H/Q39Y/Q99D/R42S/S66Y/T262R/V115G/W38E). The assay can be described thus: biochemical. The class given is binding. The conditions noted are these: binder threshold 1,000 nM, read-out: In vitro (IC50 nM) DRB1*11:01.
For the next assay, the target named is HLA DRB1*12:01 (Homo sapiens, UniProt P01903+P01911, A100R/A169T/D57E/D86V/F55L/H45Y/K41T/L162R/M171V/P40S/Q125H/Q178H/Q39Y/Q99D/R42G/S66L/T262R/V114A/V67L/W38E/Y59H/Y61H/Y89S). The assay can be described thus: biochemical. It counts as binding. The conditions noted are these: binder threshold 1,000 nM, read-out: In vitro (IC50 nM) DRB1*12:01.
In another assay the target is HLA DRB1*13:02 (Homo sapiens, UniProt P01903+P01911, A100E/A169T/K41T/L162R/M171V/P40S/Q125H/Q178H/Q39Y/Q99D/R42S/S66N/T262R/V115G/W38E/Y61H). The experiment in a line: biochemical. The conditions noted are these: binder threshold 1,000 nM, read-out: In vitro (IC50 nM) DRB1*13:02. It counts as binding.
A further assay addresses HLA DRB1*15:01 (Homo sapiens, UniProt P01903+P01911). The experiment in a line: biochemical. The class given is binding. Conditions: binder threshold 1,000 nM, read-out: In vitro (IC50 nM) DRB1*15:01.

Sequence of HLA DRB1*13:02 (P01903 26-254 limits assumed, other chains not shown): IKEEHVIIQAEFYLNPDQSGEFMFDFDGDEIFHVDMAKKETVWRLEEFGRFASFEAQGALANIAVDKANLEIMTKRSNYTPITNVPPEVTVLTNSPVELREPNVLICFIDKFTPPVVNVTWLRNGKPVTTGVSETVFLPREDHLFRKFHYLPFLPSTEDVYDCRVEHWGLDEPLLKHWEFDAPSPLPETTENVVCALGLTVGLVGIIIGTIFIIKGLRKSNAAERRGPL
Sequence of HLA DRB1*03:01 (P01903 26-254, other chains not shown): as the sequence (P01903 26-254 limits assumed, other chains not shown) above
Sequence of HLA DRB1*11:01 (P01903 26-254, other chains not shown): as the sequence (P01903 26-254 limits assumed, other chains not shown) above

As for `CC(C)C[C@H](NC(=O)[C@H](CCCNC(=N)N)NC(=O)[C@H](Cc1ccc(O)cc1)NC(=O)[C@H](Cc1ccccc1)NC(=O)[C@H](CCCNC(=N)N)NC(=O)[C@H](Cc1c[nH]cn1)NC(=O)[C@H](CO)NC(=O)[C@H](CC(C)C)NC(=O)[C@H](CO)NC(=O)[C@@H](N)CS)C(=O)N[C@@H](C)C(=O)N[C@@H](CC(N)=O)C(=O)N[C@@H](CCC(=O)O)C(=O)N[C@@H](CS)C(=O)N[C@@H](C)C(=O)O` [NSP12_130], the Alleles bound in the assay on 11 DRB1-HLA molecules is 8. Also, the “peptide-specific response, donor HH-N12-18, post COVID-19” value in assay [1] (donor HH-N12-18, sample post COVID-19) amounted to 0. Further, the “peptide-specific response, donor HH-N12-18, pre COVID-19” value in [1] (donor HH-N12-18, sample pre COVID-19) worked out at 0. In addition, the “peptide-specific response, donor HH-N12-34, post COVID-19” value in [1] (donor HH-N12-34, sample post COVID-19) was 0.031. Besides, in assay [1] (donor HH-N12-34, sample pre COVID-19), the “peptide-specific response, donor HH-N12-34, pre COVID-19” value came to 0.09. Besides, the “peptide-specific response, donor HH-N12-35, post COVID-19” value in [1] (donor HH-N12-35, sample post COVID-19) came to 0. Also, the “peptide-specific response, donor HH-N12-35, pre COVID-19” value in assay [1] (donor HH-N12-35, sample pre COVID-19) was 0. For the same compound, in assay [1] (donor HH-N12-36, sample post COVID-19), the “peptide-specific response, donor HH-N12-36, post COVID-19” value was 0.06. For the same compound, the “peptide-specific response, donor HH-N12-36, pre COVID-19” value in assay [1] (donor HH-N12-36, sample pre COVID-19) is reported as 0. The “peptide-specific response, donor HH-N12-37, post COVID-19” value in assay [1] (donor HH-N12-37, sample post COVID-19) is given as 0.032. Moreover, in [1] (donor HH-N12-37, sample pre COVID-19), the “peptide-specific response, donor HH-N12-37, pre COVID-19” value is reported as 0. Moreover, the “RF (response frequency), CD4+ T-cell response” value in the assay on CD4+ T cells is listed as 26%.
The term IC50 denotes the concentration at which inhibition is half-maximal. With `CC[C@H](C)[C@H](NC(=O)[C@H](CCSC)NC(=O)[C@H](CCSC)NC(=O)[C@H](CO)NC(=O)[C@H](Cc1ccccc1)NC(=O)[C@H](Cc1c[nH]cn1)NC(=O)[C@H](CCCCN)NC(=O)[C@H](CCCNC(=N)N)NC(=O)[C@H](CC(C)C)NC(=O)[C@H](Cc1ccc(O)cc1)NC(=O)[C@H](C)NC(=O)[C@@H](N)Cc1ccc(O)cc1)C(=O)N[C@@H](CC(C)C)C(=O)N[C@@H](CO)C(=O)N[C@@H](CC(=O)O)C(=O)O` [Peptide 150], the IC50 on HLA DRB1*01:01 was found to be 495 nM; on HLA DRB1*03:01, 5020 nM; on HLA DRB1*04:01, 102 nM; at HLA DRB1*04:05, 318 nM; at HLA DRB1*07:01 it was 0.73 nM; on HLA DRB1*08:02, 138 nM. Also, the IC50 at HLA DRB1*09:01 was 4.8 nM; on HLA DRB1*11:01, 7.9 nM; at HLA DRB1*12:01 it was 96 nM; at HLA DRB1*13:02 it was 755 nM; at HLA DRB1*15:01, 0.23 nM.

The record behind these values is PMC10196118, “Evidence for broad cross-reactivity of the SARS-CoV-2 NSP12-directed CD4^+ T-cell response with pre-primed responses directed against common cold coronaviruses” (Frontiers in Immunology, 2023).
